Assay results published in patent US12552757B2, “NRF2-activating compound” (SENJU PHARMACEUTICAL CO., LTD., priority 2019, dated 2026).

Assays:
[1] = Measurement of metabolic stability in human liver microsomes; type: in vitro ADME; details: residual ratio of test compound after 30 minutes at 37° C. with human liver microsome, LC/MS/MS
Procedure: 1 mmol/L DMSO solutions of the compounds produced in the Examples were prepared. Each of the 1 mmol/L DMSO solutions was diluted with acetonitrile to 10 μmol/L, and then diluted with a 6.5 mmol/L Q-NADPH solution to 200 nmol/L. 50 μL of each solution was added to the reaction group and the non-reaction group. 50 μL of a 0.2 mg protein/mL human liver microsome (Mixed Gender, Pool of 50 livers; XenoTech, LLC) solution was added to the reaction group, followed by incubation at 37° C. for 30 minutes with shaking. After 400 μL of methanol was added to the non-reaction group, 50 μL of a 0.2 mg protein/mL human liver microsome solution was added to adjust the formulation. After incubation in the reaction group, 400 μL of methanol was added to stop the reaction. The samples of the reaction group and non-reaction group were allowed to stand at −20° C. for about 30 minutes, followed by centrifugation at 4° C. at 3000 rpm for about 10 minutes. The supernatant was analyzed using LC/MS/MS, and the residual ratio of the test compound was calculated from the peak area value of the test compound using the following formula. The measurement was carried out using the following devices: HPLC system: LC-20A-Series High Performance Liquid Chromatograph (Shimadzu Corporation) and mass spectrometer: API 4000 (AB Sciex Pte. Ltd.), or using equivalent devices. Residual ratio (%)=(peak area value of test compound in reaction group/peak area value of test compound in non-reaction group)×100 Results

[2] = target: T1, binding between NRF2 and KEAP1 (Homo sapiens, UniProt Q14145); test: Measurement 1 of Nrf2 activating action (binding assay): BRET assay of inhibition of the binding between NRF2 and KEAP1; details: 50% binding inhibitory concentration, NanoLuc-NRF2 / KEAP1-HaloTag cell lysates
T1 construct: expressed in transfected cells; host or cells: HCE-T cells; each protein was expressed separately, and the two cell lysates were mixed in the well
Procedure: Compounds 1 to 53 produced in the Examples were used as test substances.
The inhibitory activity of each compound on the binding between NRF2 and KEAP1 was measured by bioluminescence resonance energy transfer (BRET) assay. A plasmid having human NRF2 (Original Clone ID: ha01449s1) sequence fused with NanoLuc (19 kDa, Promega) at the N-terminal was transduced into HCE-T cells using FuGENE HD (Promega). 48 hours after transduction, the cell lysate was collected and used as an NRF2-expressing cell lysate. A plasmid having human KEAP1 (Original Clone ID: cs00328) sequence fused with HaloTag (33 kDa, Promega) at the C-terminal was transduced into HCE-T cells using FuGENE HD (Promega). After 24 hours, HaloTag Nano BRET 618 Ligand (Promega) was added to the medium. The cell lysate cultured for 24 hours after the addition was used as a KEAP1-expressing cell lysate.
The NRF2-expressing cell lysate and the KEAP1-expressing cell lysate were adjusted so that the luminescence and fluorescence intensities per well were constant. Tables 1 and 2 show the formulation of each reaction solution.
Each test substance at a concentration 100 times higher than the test concentration was dissolved in dimethylsulfoxide for adjustment. 49 μL of KEAP1 solution was added to a 96-well polystyrene microplate (FALCON) to which 1 μL of each test substance solution was added, followed by incubation for 15 minutes. Then, 50 μL of NRF2 solution was added to the above solution, followed by incubation for 1 hour. To measure the binding between NRF2 and KEAP1, NanoBRET Nano-Glo Substrate (Promega) diluted with Opti-Mem (Thermo Fisher Scientific) was added, followed by shaking for 30 seconds. Then, luminescence and fluorescence were measured using the GloMax Discover System (Promega). A 495-nm short pass filter and a 600-nm long pass filter were respectively used to measure donor and acceptor emission values. A value obtained by dividing the acceptor emission value by the donor emission value was regarded as BRET value. A BRET value when the compound was not added, and a BRET value when the KEAP1 solution was not added were respectively used as binding rates of 100% and 0%, and the binding rate when the compound was added was calculated. Further, using this binding rate, the 50% binding inhibitory activity concentration (IC50) was calculated from the following formula: IC50(M)=10^(LOG(A/B)×(50−C)/(D−C)+LOG(B)) • A: higher concentration out of 2 close concentrations across the inhibition rate of 50% • B: lower concentration out of 2 close concentrations across the inhibition rate of 50% • C: inhibition rate at B • D: inhibition rate at A

T1 sequence (Q14145 whole entry): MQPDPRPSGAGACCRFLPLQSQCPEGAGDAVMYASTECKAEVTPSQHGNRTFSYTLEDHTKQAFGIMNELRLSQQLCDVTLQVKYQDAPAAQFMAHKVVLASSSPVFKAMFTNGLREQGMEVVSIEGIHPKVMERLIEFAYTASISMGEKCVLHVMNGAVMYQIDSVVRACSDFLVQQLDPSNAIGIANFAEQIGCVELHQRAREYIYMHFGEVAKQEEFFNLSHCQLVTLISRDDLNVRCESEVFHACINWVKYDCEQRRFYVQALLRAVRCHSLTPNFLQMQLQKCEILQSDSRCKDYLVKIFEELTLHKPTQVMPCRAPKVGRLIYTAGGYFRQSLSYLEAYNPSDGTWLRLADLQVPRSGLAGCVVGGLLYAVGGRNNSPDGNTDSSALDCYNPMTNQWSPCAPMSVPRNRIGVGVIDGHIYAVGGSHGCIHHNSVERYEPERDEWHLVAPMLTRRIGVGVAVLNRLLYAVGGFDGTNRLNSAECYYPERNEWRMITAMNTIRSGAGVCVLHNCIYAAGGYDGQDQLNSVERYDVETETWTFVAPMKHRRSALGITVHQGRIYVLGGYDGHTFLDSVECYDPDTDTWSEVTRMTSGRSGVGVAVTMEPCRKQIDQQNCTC

Row | SMILES | Metabolic stability* [1] | IC50 [2]
1 | CC[C@@H]1CN(Cc2cc(C(CC(=O)O)c3ccc(C(C)=O)s3)ccc2C)S(=O)(=O)c2ccccc2O1 (stereo partly drawn) [Compound 5, 3-(5-acetylthiophen-2-yl)-3-(3-{[(R)-4-ethyl-1,1-dioxide-3,4-dihydro-2H-benzo[b][1,4,5]oxathiazepin-2-yl]methyl}-4-methylphenyl)propanoic acid] | 53% | 
2 | CC[C@@H]1CN(Cc2cc(C(c3ccc(C(C)=O)s3)C(C)(C)C(=O)O)ccc2C)S(=O)(=O)c2ccccc2O1 (stereo partly drawn) [Compound 6, 3-(5-acetylthiophen-2-yl)-3-(3-{[(R)-4-ethyl-1,1-dioxide-3,4-dihydro-2H-benzo[b][1,4,5]oxathiazepin-2-yl]methyl}-4-methylphenyl)-2,2-dimethylpropanoic acid] | 32% | 
3 | CC[C@@H]1CN(Cc2cc(C(CC(=O)O)c3cc(C)c(C(C)=O)s3)ccc2C)S(=O)(=O)c2ccccc2O1 (stereo partly drawn) [Compound 7, 3-(5-acetyl-4-methylthiophen-2-yl)-3-(3-{[(R)-4-ethyl-1,1-dioxide-3,4-dihydro-2H-benzo[b][1,4,5]oxathiazepin-2-yl]methyl}-4-methylphenyl)propanoic acid] | 30% | 
4 | CC[C@@H]1CN(Cc2cc(C(CC(=O)O)c3cc(F)c(C(C)=O)s3)ccc2C)S(=O)(=O)c2ccccc2O1 (stereo partly drawn) [Compound 8, 3-(5-acetyl-4-fluorothiophen-2-yl)-3-(3-{[(R)-4-ethyl-1,1-dioxide-3,4-dihydro-2H-benzo[b][1,4,5]oxathiazepin-2-yl]methyl}-4-methylphenyl)propanoic acid] | 36% | 
5 | CC[C@@H]1CN(Cc2cc(C(c3ccc(C(C)=O)s3)C(C)(C)C(=O)O)ccc2C)S(=O)(=O)c2c(F)cccc2O1 (stereo partly drawn) [Compound 9, 3-(5-acetylthiophen-2-yl)-3-(3-{[(R)-4-ethyl-9-fluoro-1,1-dioxide-3,4-dihydro-2H-benzo[b][1,4,5]oxathiazepin-2-yl]methyl}-4-methylphenyl)-2,2-dimethylpropanoic acid] | 38% | 
6 | CC[C@@H]1CN(Cc2cc(C(CC(=O)O)c3cc(C(C)=O)cs3)ccc2C)S(=O)(=O)c2ccccc2O1 (stereo partly drawn) [Compound 10, 3-(4-acetylthiophen-2-yl)-3-(3-{[(R)-4-ethyl-1,1-dioxide-3,4-dihydro-2H-benzo[b][1,4,5]oxathiazepin-2-yl]methyl}-4-methylphenyl)propanoic acid] | 39% | 
7 | CC[C@@H]1CN(Cc2cc(C(c3cc(F)c(C(C)=O)s3)C(C)(C)C(=O)O)ccc2C)S(=O)(=O)c2ccccc2O1 (stereo partly drawn) [Compound 11, 3-(5-acetyl-4-fluorothiophen-2-yl)-3-(3-{[(R)-4-ethyl-1,1-dioxide-3,4-dihydro-2H-benzo[b][1,4,5]oxathiazepin-2-yl]methyl}-4-methylphenyl)-2,2-dimethylpropanoic acid] | 27% | 
8 | CC(=O)c1ccc(C(c2ccc(C)c(CN3C[C@@H](C)Oc4ccccc4S3(=O)=O)c2)C(C)(C)C(=O)O)s1 (stereo partly drawn) [Compound 12, 3-(5-acetylthiophen-2-yl)-2,2-dimethyl-3-(4-methyl-3-{[(R)-4-methyl-1,1-dioxide-3,4-dihydro-2H-benzo[b][1,4,5]oxathiazepin-2-yl]methyl}phenyl)propanoic acid] | 56% | 
9 | CC[C@@H]1CN(Cc2cc(C(CC(=O)O)c3sc(C(C)=O)cc3C)ccc2C)S(=O)(=O)c2ccccc2O1 (stereo partly drawn) [Compound 14, 3-(5-acetyl-3-methylthiophen-2-yl)-3-(3-{[(R)-4-ethyl-1,1-dioxide-3,4-dihydro-2H-benzo[b][1,4,5]oxathiazepin-2-yl]methyl}-4-methylphenyl)propanoic acid] | 25% | 
10 | CC[C@@H]1CN(Cc2cc(C(CC(=O)O)c3csc(C(C)=O)c3)ccc2C)S(=O)(=O)c2ccccc2O1 (stereo partly drawn) [Compound 15, 3-(5-acetylthiophen-3-yl)-3-(3-{[(R)-4-ethyl-1,1-dioxide-3,4-dihydro-2H-benzo[b][1,4,5]oxathiazepin-2-yl]methyl}-4-methylphenyl)propanoic acid] | 47% | 
11 | CC[C@@H]1CN(Cc2cc(C(CC(=O)O)c3cccs3)ccc2C)S(=O)(=O)c2ccccc2O1 (stereo partly drawn) [Compound 17, 3-(3-{[(R)-4-ethyl-1,1-dioxide-3,4-dihydro-2H-benzo[b][1,4,5]oxathiazepin-2-yl]methyl}-4-methylphenyl)-3-(thiophen-2-yl)propanoic acid] | 36% | 
12 | CC[C@@H]1CN(Cc2cc(C(CC(=O)O)c3ccc(S(N)(=O)=O)s3)ccc2C)S(=O)(=O)c2ccccc2O1 (stereo partly drawn) [Compound 18, 3-(3-{[(R)-4-ethyl-1,1-dioxide-3,4-dihydro-2H-benzo[b][1,4,5]oxathiazepin-2-yl]methyl}-4-methylphenyl)-3-(5-sulfamoylthiophen-2-yl)propanoic acid] | 40% | 35 nM
13 | CC[C@@H]1CN(Cc2cc(C(CC(=O)O)c3ccc(C#N)s3)ccc2C)S(=O)(=O)c2ccccc2O1 (stereo partly drawn) [Compound 19, 3-(5-cyanothiophen-2-yl)-3-(3-{[(R)-4-ethyl-1,1-dioxide-3,4-dihydro-2H-benzo[b][1,4,5]oxathiazepin-2-yl]methyl}-4-methylphenyl)propanoic acid] | 23% | 
14 | CC[C@@H]1CN(Cc2cc(C(CC(=O)O)c3ccc(C(=O)C4CC4)s3)ccc2C)S(=O)(=O)c2ccccc2O1 (stereo partly drawn) [Compound 20, 3-[5-(cyclopropanecarbonyl)thiophen-2-yl]-3-(3-{[(R)-4-ethyl-1,1-dioxide-3,4-dihydro-2H-benzo[b][1,4,5]oxathiazepin-2-yl]methyl}-4-methylphenyl)propanoic acid] | 7% | 24 nM
15 | CC[C@@H]1CN(Cc2cc(C(CC(=O)O)c3ccc(C(=O)NC)s3)ccc2C)S(=O)(=O)c2ccccc2O1 (stereo partly drawn) [Compound 21, 3-(3-{[(R)-4-ethyl-1,1-dioxide-3,4-dihydro-2H-benzo[b][1,4,5]oxathiazepin-2-yl]methyl}-4-methylphenyl)-3-[5-(methylcarbamoyl)thiophen-2-yl]propanoic acid] | 74% | 
16 | CC[C@@H]1CN(Cc2cc(C(CC(=O)O)c3csc(C(=O)NC)c3)ccc2C)S(=O)(=O)c2ccccc2O1 (stereo partly drawn) [Compound 22, 3-(3-{[(R)-4-ethyl-1,1-dioxide-3,4-dihydro-2H-benzo[b][1,4,5]oxathiazepin-2-yl]methyl}-4-methylphenyl)-3-[5-(methylcarbamoyl)thiophen-3-yl]propanoic acid] | 77% | 
17 | CC[C@@H]1CN(Cc2cc(C(CC(=O)O)c3ccc(C(N)=O)s3)ccc2C)S(=O)(=O)c2ccccc2O1 (stereo partly drawn) [Compound 23, 3-(5-carbamoylthiophen-2-yl)-3-(3-{[(R)-4-ethyl-1,1-dioxide-3,4-dihydro-2H-benzo[b][1,4,5]oxathiazepin-2-yl]methyl}-4-methylphenyl)propanoic acid] | 75% | 
18 | CC[C@@H]1CN(Cc2cc(C(c3cc(F)c(C(C)=O)s3)C(C)C(=O)O)ccc2C)S(=O)(=O)c2cnccc2O1 (stereo partly drawn) [Compound 52, 3-(5-acetyl-4-fluorothiophen-2-yl)-3-(3-{[(R)-4-ethyl-1,1-dioxide-3,4-dihydro-2H-pyrido[4,3-b][1,4,5]oxathiazepin-2-yl]methyl}-4-methylphenyl)-2-methylpropanoic acid] | 53% | 
